Laboratory results reported in patent publication US6552196B2, “Quinolone carboxylic acid derivatives” (Dong Wha Pharmaceutical Industrial Co., Ltd., priority 1997, dated 2003).
Values after ≈ are worked out from the molar mass of the structure shown.

What was measured:
Format in all cases: cell-based
[1] = system: Klebsiella aerogenes 1522E; experiment: In vitro antibacterial activity (MIC), agar dilution; conditions: 2-fold agar dilution, Muller-Hinton agar, 18 hours at 37° C., read-out: minimum inhibitory concentration (MIC)
Protocol: (§1) 10^7 cfu/ml of bacteria were inoculated and cultured for 18 hours at 37° C. and then the antibacterial activities were measured. For the methicillin resistant strains the activities were measured after 48 hours of cultivation at 30° C. Hoechst Standard strains were used for the testings.

[2] = system: Pseudomonas aeruginosa 9027; experiment: as above; conditions: 2-fold agar dilution, Muller-Hinton agar, 18 hours at 37° C., read-out: minimum inhibitory concentration (MIC)
Protocol: as §1

Esherichia coli 078 = experiment: as above; conditions: 2-fold agar dilution, Muller-Hinton agar, 18 hours at 37° C., read-out: minimum inhibitory concentration (MIC)
Protocol: as §1

Esherichia coli DC0 = experiment: as above; conditions: 2-fold agar dilution, Muller-Hinton agar, 18 hours at 37° C., read-out: minimum inhibitory concentration (MIC)
Protocol: as §1

Esherichia coli 1507E = experiment: as above; conditions: 2-fold agar dilution, Muller-Hinton agar, 18 hours at 37° C., read-out: minimum inhibitory concentration (MIC)
Protocol: as §1

Esherichia coli DC2 = experiment: as above; conditions: 2-fold agar dilution, Muller-Hinton agar, 18 hours at 37° C., read-out: minimum inhibitory concentration (MIC)
Protocol: as §1

[3] = system: Pseudomonas aeruginosa 1771M; experiment: as above; conditions: Pseudomonas aeruginosa, 1771M, 18 h, read-out: minimum inhibitory concentration (MIC)
Protocol: as §1

[4] = system: Staphylococcus aureus 503; experiment: as above; conditions: 2-fold agar dilution, Muller-Hinton agar, 18 hours at 37° C., read-out: minimum inhibitory concentration (MIC)
Protocol: as §1

[5] = system: Enterobacter clocae 1321E; experiment: as above; conditions: 2-fold agar dilution, Muller-Hinton agar, 18 hours at 37° C., read-out: minimum inhibitory concentration (MIC)
Protocol: as §1

[6] = system: Pseudomonas aeruginosa 1592E; experiment: as above; conditions: 2-fold agar dilution, Muller-Hinton agar, 18 hours at 37° C., read-out: minimum inhibitory concentration (MIC)
Protocol: as §1

Klebsiella oxytoca 1082E = experiment: as above; conditions: 2-fold agar dilution, Muller-Hinton agar, 18 hours at 37° C., read-out: minimum inhibitory concentration (MIC)
Protocol: as §1

[7] = system: Streptococcus faecium MD 8b; experiment: as above; conditions: Enterococcus faecium, MD8B, 2-fold agar dilution, Muller-Hinton agar, 18 hours at 37° C., read-out: minimum inhibitory concentration (MIC)
Protocol: as §1

[8] = system: Streptococcus pyogens 77A; experiment: as above; conditions: 2-fold agar dilution, Muller-Hinton agar, 18 hours at 37° C., read-out: minimum inhibitory concentration (MIC)
Protocol: as §1

Esherichia coli TEM = experiment: as above; conditions: 2-fold agar dilution, Muller-Hinton agar, 18 hours at 37° C., read-out: minimum inhibitory concentration (MIC)
Protocol: as §1

[9] = system: Staphylococcus aureus SG511; experiment: as above; conditions: 2-fold agar dilution, Muller-Hinton agar, 18 hours at 37° C., read-out: minimum inhibitory concentration (MIC)
Protocol: as §1

[10] = system: Pseudomonas aeruginosa 1771; experiment: as above; conditions: 2-fold agar dilution, Muller-Hinton agar, 18 hours at 37° C., read-out: minimum inhibitory concentration (MIC)
Protocol: as §1

[11] = system: Staphylococcus aureus 285; experiment: as above; conditions: 2-fold agar dilution, Muller-Hinton agar, 18 hours at 37° C., read-out: minimum inhibitory concentration (MIC)
Protocol: as §1

Salmonella typhimurium = experiment: as above; conditions: Salmonella enterica, 2-fold agar dilution, Muller-Hinton agar, 18 hours at 37° C., read-out: minimum inhibitory concentration (MIC)
Protocol: as §1

[12] = system: Streptococcus pyogens 308A; experiment: as above; conditions: 2-fold agar dilution, Muller-Hinton agar, 18 hours at 37° C., read-out: minimum inhibitory concentration (MIC)
Protocol: as §1

Enterobacter clocae P99 = experiment: as above; conditions: 2-fold agar dilution, Muller-Hinton agar, 18 hours at 37° C., read-out: minimum inhibitory concentration (MIC)
Protocol: as §1

[13] = system: Staphylococcus aureus 293; experiment: In vitro antibacterial activity against resistant strains (MIC); conditions: resistant strain Staphylococcus aureus 293; 2-fold agar dilution; methicillin resistant strains 48 hours at 30° C.; read-out: minimum inhibitory concentration (MIC)
Protocol: as §1

[14] = system: Staphylococcus aureus 256E; experiment: as above; conditions: resistant strain Staphylococcus aureus 256E; 2-fold agar dilution; methicillin resistant strains 48 hours at 30° C.; read-out: minimum inhibitory concentration (MIC)
Protocol: as §1

[15] = system: Staphylococcus aureus 88E; experiment: as above; conditions: resistant strain Staphylococcus aureus 88E; 2-fold agar dilution; methicillin resistant strains 48 hours at 30° C.; read-out: minimum inhibitory concentration (MIC)
Protocol: as §1

[16] = system: Staphylococcus epidermidis 178; experiment: as above; conditions: resistant strain Staphylococcus epidermidis 178; 2-fold agar dilution; methicillin resistant strains 48 hours at 30° C.; read-out: minimum inhibitory concentration (MIC)
Protocol: as §1

[17] = system: Staphylococcus aureus 703E; experiment: as above; conditions: resistant strain Staphylococcus aureus 703E; 2-fold agar dilution; methicillin resistant strains 48 hours at 30° C.; read-out: minimum inhibitory concentration (MIC)
Protocol: as §1

[18] = system: Staphylococcus aureus 701E; experiment: as above; conditions: resistant strain Staphylococcus aureus 701E; 2-fold agar dilution; methicillin resistant strains 48 hours at 30° C.; read-out: minimum inhibitory concentration (MIC)
Protocol: as §1

[19] = system: Staphylococcus aureus 303; experiment: as above; conditions: resistant strain Staphylococcus aureus 303; 2-fold agar dilution; methicillin resistant strains 48 hours at 30° C.; read-out: minimum inhibitory concentration (MIC)
Protocol: as §1

[20] = system: Staphylococcus aureus 692E; experiment: as above; conditions: resistant strain Staphylococcus aureus 692E; 2-fold agar dilution; methicillin resistant strains 48 hours at 30° C.; read-out: minimum inhibitory concentration (MIC)
Protocol: as §1

[21] = system: Staphylococcus aureus 8236; experiment: as above; conditions: resistant strain Staphylococcus aureus 8236; 2-fold agar dilution; methicillin resistant strains 48 hours at 30° C.; read-out: minimum inhibitory concentration (MIC)
Protocol: as §1

[22] = system: Staphylococcus aureus 695E; experiment: as above; conditions: resistant strain Staphylococcus aureus 695E; 2-fold agar dilution; methicillin resistant strains 48 hours at 30° C.; read-out: minimum inhibitory concentration (MIC)
Protocol: as §1

[23] = system: Staphylococcus aureus 693E; experiment: as above; conditions: resistant strain Staphylococcus aureus 693E; 2-fold agar dilution; methicillin resistant strains 48 hours at 30° C.; read-out: minimum inhibitory concentration (MIC)
Protocol: as §1

[24] = system: Staphylococcus aureus 121E; experiment: as above; conditions: resistant strain Staphylococcus aureus 121E; 2-fold agar dilution; methicillin resistant strains 48 hours at 30° C.; read-out: minimum inhibitory concentration (MIC)
Protocol: as §1

[25] = system: Staphylococcus aureus 690E; experiment: as above; conditions: resistant strain Staphylococcus aureus 690E; 2-fold agar dilution; methicillin resistant strains 48 hours at 30° C.; read-out: minimum inhibitory concentration (MIC)
Protocol: as §1

[26] = system: Staphylococcus aureus 697E; experiment: as above; conditions: resistant strain Staphylococcus aureus 697E; 2-fold agar dilution; methicillin resistant strains 48 hours at 30° C.; read-out: minimum inhibitory concentration (MIC)
Protocol: as §1

[27] = system: Staphylococcus aureus 179; experiment: as above; conditions: resistant strain Staphylococcus aureus 179; 2-fold agar dilution; methicillin resistant strains 48 hours at 30° C.; read-out: minimum inhibitory concentration (MIC)
Protocol: as §1

[28] = system: Staphylococcus aureus 208E; experiment: as above; conditions: resistant strain Staphylococcus aureus 208E; 2-fold agar dilution; methicillin resistant strains 48 hours at 30° C.; read-out: minimum inhibitory concentration (MIC)
Protocol: as §1

[29] = system: Staphylococcus aureus 241; experiment: as above; conditions: resistant strain Staphylococcus aureus 241; 2-fold agar dilution; methicillin resistant strains 48 hours at 30° C.; read-out: minimum inhibitory concentration (MIC)
Protocol: as §1

[30] = system: Staphylococcus aureus 694E; experiment: as above; conditions: resistant strain Staphylococcus aureus 694E; 2-fold agar dilution; methicillin resistant strains 48 hours at 30° C.; read-out: minimum inhibitory concentration (MIC)
Protocol: as §1

[31] = system: Staphylococcus epidermidis 291; experiment: as above; conditions: resistant strain Staphylococcus epidermidis 291; 2-fold agar dilution; methicillin resistant strains 48 hours at 30° C.; read-out: minimum inhibitory concentration (MIC)
Protocol: as §1

| Structure (SMILES) | MIC [1] [µg/mL] | MIC [2] [µg/mL] | MIC (Esherichia coli 078) [µg/mL] | MIC (Esherichia coli DC0) [µg/mL] | MIC (Esherichia coli 1507E) [µg/mL] | MIC (Esherichia coli DC2) [µg/mL] | MIC [3] [µg/mL] | MIC [4] [µg/mL] | MIC [5] [µg/mL] | MIC [6] [µg/mL] | MIC (Klebsiella oxytoca 1082E) [µg/mL] | MIC [7] [µg/mL] | MIC [8] [µg/mL] | MIC (Esherichia coli TEM) [µg/mL] | MIC [9] [µg/mL] | MIC [10] [µg/mL] | MIC [11] [µg/mL] | MIC (Salmonella typhimurium) [µg/mL] | MIC [12] [µg/mL] | MIC (Enterobacter clocae P99) [µg/mL] | also measured |
| --- | --- | --- | --- | --- | --- | --- | --- | --- | --- | --- | --- | --- | --- | --- | --- | --- | --- | --- | --- | --- | --- |
| CON=C1CN(c2cc3c(cc2F)c(=O)c(C(=O)O)cn3C2CC2)CC12CNC2.CS(=O)(=O)O [Example 2, 1-Cyclopropyl-6-fluoro-7-[8-(methoxyimino)-2,6-diazaspiro[3,4]oct-6-yl]-4-oxo-1,4-dihydro-3-quinolinecarboxylic acid methane sulfonate] | 0.098 | 0.781 | 0.025 | 0.198 | 0.049 | 0.013 | 0.391 | 0.049 | 0.025 | 0.391 | 0.007 | 0.098 | 0.007 | 0.049 | 0.013 | 0.391 | 0.049 | 0.025 | 0.195 | 0.049 | – |
| CON=C1CN(c2c(F)cc3c(=O)c(C(=O)O)cn(C4CC4)c3c2F)CC12CNC2 [Example 3, 1-Cyclopropyl-6,8-difluoro-7-[8-(methoxyimino)-2,6-diazaspiro[3,4]oct-6-yl]-4-oxo-1,4-dihydro-3-quinolinecarboxylic acid] | 0.098 (≈ 0.234 µM) | 1.56 (≈ 3.74 µM) | 0.098 (≈ 0.234 µM) | 0.391 (≈ 0.935 µM) | 0.049 (≈ 0.117 µM) | 0.025 (≈ 0.0598 µM) | 0.781 (≈ 1.87 µM) | 0.098 (≈ 0.234 µM) | 0.025 (≈ 0.0598 µM) | 0.781 (≈ 1.87 µM) | 0.007 (≈ 0.0167 µM) | 0.098 (≈ 0.234 µM) | 0.025 (≈ 0.0598 µM) | 0.049 (≈ 0.117 µM) | 0.025 (≈ 0.0598 µM) | 1.56 (≈ 3.74 µM) | 0.049 (≈ 0.117 µM) | 0.025 (≈ 0.0598 µM) | 0.391 (≈ 0.935 µM) | 0.049 (≈ 0.117 µM) | – |
| CON=C1CN(c2cc3c(cc2F)c(=O)c(C(=O)O)cn3-c2ccc(F)cc2F)CC12CNC2.CS(=O)(=O)O.CS(=O)(=O)O [Example 6, 1-(2,4-Difluorophenyl)-6-fluoro-7-[8-(methoxyimino)-2,6-diazaspiro[3,4]oct-6-yl]-4-oxo-1,4-dihydro-3-quinolinecarboxylic acid dimethanesulfonate] | 0.391 | 3.12 | 0.049 | 0.781 | 0.195 | 0.098 | 1.56 | 0.049 | 0.098 | 1.56 | 0.013 | 0.195 | 0.013 | 0.195 | 0.049 | 1.56 | 0.098 | 0.049 | 0.195 | 0.098 | – |
| C[C@@H]1CN(c2c(F)c(N)c3c(=O)c(C(=O)O)cn(C4CC4)c3c2F)C[C@H](C)N1 [Sparfloxacin, sparfloxacin, reference compound] | 0.025 (≈ 0.0637 µM) | 0.781 (≈ 1.99 µM) | 0.004 (≈ 0.0102 µM) | 0.195 (≈ 0.497 µM) | 0.025 (≈ 0.0637 µM) | – | 0.195 (≈ 0.497 µM) | 0.049 (≈ 0.125 µM) | 0.004 (≈ 0.0102 µM) | 0.781 (≈ 1.99 µM) | < 0.002 | 0.391 (≈ 0.996 µM) | 0.195 (≈ 0.497 µM) | 0.013 (≈ 0.0331 µM) | 0.098 (≈ 0.25 µM) | 0.781 (≈ 1.99 µM) | 0.049 (≈ 0.125 µM) | 0.007 (≈ 0.0178 µM) | 0.391 (≈ 0.996 µM) | 0.007 (≈ 0.0178 µM) | MIC [13]: 6.25 µg/mL (≈ 15.9 µM); MIC [14]: 0.098 µg/mL (≈ 0.25 µM); MIC [15]: 0.098 µg/mL (≈ 0.25 µM); MIC [16]: 6.25 µg/mL (≈ 15.9 µM); MIC [17]: 0.098 µg/mL (≈ 0.25 µM); MIC [18]: 0.098 µg/mL (≈ 0.25 µM); MIC [19]: 3.12 µg/mL (≈ 7.96 µM); MIC [20]: 0.049 µg/mL (≈ 0.125 µM); MIC [21]: 6.25 µg/mL (≈ 15.9 µM); MIC [22]: 0.049 µg/mL (≈ 0.125 µM); MIC [23]: 0.049 µg/mL (≈ 0.125 µM); MIC [24]: 0.098 µg/mL (≈ 0.25 µM); MIC [25]: 0.049 µg/mL (≈ 0.125 µM); MIC [26]: 0.049 µg/mL (≈ 0.125 µM); MIC [27]: 6.25 µg/mL (≈ 15.9 µM); MIC [28]: 0.098 µg/mL (≈ 0.25 µM); MIC [29]: 6.25 µg/mL (≈ 15.9 µM); MIC [30]: 0.098 µg/mL (≈ 0.25 µM); MIC [31]: 6.25 µg/mL (≈ 15.9 µM) |
